# Experimental data as given in patent publication US9580426B2, “Compounds that expand hematopoietic stem cells” (Novartis AG, priority 2008, dated 2017).
# Columns and labels:
# [1] = system: Primary adult CD34+ human hematopoietic stem cells (HSCs); assay: % CD34+ assay: HSC expansion screen, dose response; type: cell-based; settings: Homo sapiens, Hematopoietic stem cell; dose response 1 nM to 10 μM; total number and/or percent of CD34+ cells
# Method in brief: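 Human CD34+ cells, chiefly MACS-enriched from G-CSF-mobilized peripheral blood, were grown at 37° C., 5% CO2 in serum-free StemSpan with TPO, IL-6, Flt-3 ligand and SCF (50 ng/mL each), plus compound or DMSO. Cultures were kept at 10^4–5×10^5 cells/mL and assessed by flow cytometry for CD34 expression. EC50 came from a 1 nM–10 μM dose response.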
# murine HSC = assay: Activity on murine HSC; type: cell-based
# human AHR = target: T1, human AHR (Homo sapiens, UniProt P35869); assay: cell-based; type: cell-based
# T1 construct: endogenous in cells; host or cells: unnamed human cells carrying an AHR-dependent luciferase reporter
# T1 sequence (P35869 11-848): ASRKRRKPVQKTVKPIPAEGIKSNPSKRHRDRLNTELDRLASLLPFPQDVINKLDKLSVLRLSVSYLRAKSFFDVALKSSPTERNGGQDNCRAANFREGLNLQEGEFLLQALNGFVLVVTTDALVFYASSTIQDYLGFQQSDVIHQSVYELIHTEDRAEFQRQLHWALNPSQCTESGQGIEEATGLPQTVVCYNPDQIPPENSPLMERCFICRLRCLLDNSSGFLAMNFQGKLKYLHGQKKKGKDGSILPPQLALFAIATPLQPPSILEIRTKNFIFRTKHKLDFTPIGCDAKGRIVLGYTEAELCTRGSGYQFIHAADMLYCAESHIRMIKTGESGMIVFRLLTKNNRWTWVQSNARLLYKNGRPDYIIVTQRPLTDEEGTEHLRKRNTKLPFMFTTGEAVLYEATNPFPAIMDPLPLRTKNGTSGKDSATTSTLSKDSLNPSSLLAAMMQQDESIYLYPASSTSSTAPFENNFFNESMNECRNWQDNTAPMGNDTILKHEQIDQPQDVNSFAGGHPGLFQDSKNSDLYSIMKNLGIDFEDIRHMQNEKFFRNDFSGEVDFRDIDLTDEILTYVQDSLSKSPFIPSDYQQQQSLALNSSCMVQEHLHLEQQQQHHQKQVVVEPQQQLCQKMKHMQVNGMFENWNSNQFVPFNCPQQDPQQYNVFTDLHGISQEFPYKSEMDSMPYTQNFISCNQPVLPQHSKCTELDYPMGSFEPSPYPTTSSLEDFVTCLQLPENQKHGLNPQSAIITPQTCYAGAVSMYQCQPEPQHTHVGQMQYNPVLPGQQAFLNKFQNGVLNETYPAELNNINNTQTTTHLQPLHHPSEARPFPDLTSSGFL
# Method: Further, the ability of Example 1 to block 2,3,7,8-tetrachlorodibenzo-p-dioxin (TCDD, dioxin)-mediated CYP1B1 mRNA expression by qPCR in mPB-derived CD34^+ cells was determined. Treatment with TCDD (3 nM) caused a 4.5-fold increase in the level of CYP1B1 mRNA compared with the vehicle control (0.01% toluene). […] To determine the effects of Example 1 in AHR transcription the ability of Example 1 to inhibit a dioxin-induced AHR dependent luciferase reporter gene assay was tested.
# mPB CD34+ HSCs = assay: Cobblestone area-forming cell (CAFC) assay; type: cell-based, human; settings: 1 micromolar; mPB CD34+ HSCs after 5 days of culture
# Method: Cobblestone area-forming cell (CAFC) assays: The FBMD-1 stromal cells are maintained in 25-cm^2 flasks and are trypsinized after ⅓ confluence. Since this non-transformed line ages, and therefore gradually loses its potential to support CAFC growth at late stages, all feeders are used below passage 20. For supporting CAFC growth in 96-well plates, 1×10^3 stromal cells are seeded per well. The cultures are maintained in Iscove's medium supplemented with 10% fetal calf serum (FCS), 2.5% horse serum (HS), 1% L-glutamine, 1% penicillin-streptomycin, and 1×10^−5 M hydrocortisone at 37° C. in a humidified atmosphere of 5% CO2 in air. After stromal layers reach confluency, they are inoculated with CD34^+ HSCs that have been cultured for 5 days with vehicle or a compound of the invention. MNCs are added at 8 serial 1:3 dilutions (starting at 25,000 cells/well), with 10 wells for each cell dose. The dilutions with wells with at least one phase-dark hematopoietic clone (cobblestone area) of at least five cells beneath the stromal layer are determined at week 4. […]
structure (smiles),measurement,setting,value
"CC(C)n1cnc2c(NCCc3ccc(O)cc3)nc(-c3csc4ccccc34)nc21 [Example 1, 4-(2-(2-(benzo[b]thiophen-3-yl)-9-isopropyl-9H-purin-6-ylamino)ethyl)phenol]",EC50,[1],120 nM
same,activity on murine HSC,murine HSC,lack of activity
same,EC50,human AHR,127 nM
same,dioxin-induced AHR dependent transcription,"human AHR; 1 μM, cells expressing human AHR",completely abolished
same,agonist activity (induction of AHR dependent transcription),human AHR; human cells,failed to induce AHR dependent transcription
same,increase in the number of cobblestone area forming cells compared with DMSO control,mPB CD34+ HSCs,greater than 2 fold
